Results as given in patent publication US20240426832A1, “METHODS OF IDENTIFYING COMPOUNDS FOR INDUCING PROTEIN-PROTEIN INTERACTION” (Oncopia Therapeutics, Inc. d/b/a/ SK Life Science Labs, priority 2023, published 2024).

Tests used:
IKZF2-CRBN [1] = target: T1, IKZF2-CRBN (Homo sapiens, UniProt Q96SW2+Q9UKS7); conditions: stated as known; cited from earlier work
IKZF2-CRBN [2] = target: T1, IKZF2-CRBN; assay: glue screening assay (tripartite split-GFP fluorescence), GFP11-tagged IKZF2 and GFP10-tagged CRBN; format: binding; conditions: protein mix GFP1-9, GFP11-IKZF2, IKZF2-GFP11, GFP10-CRBN, time-course, FIG. 5
Method: In another version of the assay, the glue screening assay mixture is assembled in a volume of 2 μL assay buffer (50 mM HEPES buffer, pH 7.5, 150 mM KCl, 4 mM DTT, 0.1 mg/mL BSA, 0.25 mM octyl-beta-glucopyranoside, 5% glycerol with 0.3 μg GFP1-9, 0.05 μg of GFP11-tagged IKZF2, and 0.3 μg GFP10-tagged CRBN. Various variations of the buffer provide consistent signal in this assay (0.1-1 mg/mL BSA, 0-10% glycerol, 0-1 mM octyl-beta-glucopyranoside). Similar to the previous version, two different versions of GFP11-tagged IKZF2 are tested with GFP11 fused to N- and C-termini of IKZF2 (GFP11-IKZF2 and IKZF2-GFP11, respectively). Likewise, two different versions of GFP10-tagged CRBN are tested: GFP10 fused to the N-terminus of CRBN (GFP10-CRBN) and GFP10 fused to the C-terminus of CRBN (CRBN-GFP10). Concentrations correspond to 5 μM of GFP (1-9), 1.25 μM of each of the IKZF2 constructs and 0.5 μM of each of the two CRBN constructs. Concentrations of the IKZF2 and CRBN proteins were optimized for best signal to background by titrating the proteins against each other.
For primary screens, these five different proteins (GFP1-9, GFP11-IKZF2, IKZF2-GFP11, GFP10-CRBN, and CRBN-GFP10) are combined in the assay buffer and added to the plates containing different compound pools. […]

RBM39 and DCAF15 = RBM39 and DCAF15 (Homo sapiens, UniProt Q14498+Q66K64); conditions: stated as known; cited from earlier work
Chain of RBM39 and DCAF15 (Q14498 whole entry, species assumed): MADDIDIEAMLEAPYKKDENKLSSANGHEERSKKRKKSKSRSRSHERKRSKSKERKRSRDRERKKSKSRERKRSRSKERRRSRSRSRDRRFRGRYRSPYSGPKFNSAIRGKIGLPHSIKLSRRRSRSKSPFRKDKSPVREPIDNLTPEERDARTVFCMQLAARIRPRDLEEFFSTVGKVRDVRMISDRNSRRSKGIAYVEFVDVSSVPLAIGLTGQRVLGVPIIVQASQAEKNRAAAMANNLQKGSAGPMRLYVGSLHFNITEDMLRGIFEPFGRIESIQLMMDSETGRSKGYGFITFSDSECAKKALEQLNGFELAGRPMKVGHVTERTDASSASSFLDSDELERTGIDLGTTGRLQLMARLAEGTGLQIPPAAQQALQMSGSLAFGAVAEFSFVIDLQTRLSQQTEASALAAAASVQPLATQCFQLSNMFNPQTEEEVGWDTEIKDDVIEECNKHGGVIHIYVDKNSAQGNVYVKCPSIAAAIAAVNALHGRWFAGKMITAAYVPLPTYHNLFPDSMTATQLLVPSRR
Chain of RBM39 and DCAF15 (Q66K64 whole entry, species assumed): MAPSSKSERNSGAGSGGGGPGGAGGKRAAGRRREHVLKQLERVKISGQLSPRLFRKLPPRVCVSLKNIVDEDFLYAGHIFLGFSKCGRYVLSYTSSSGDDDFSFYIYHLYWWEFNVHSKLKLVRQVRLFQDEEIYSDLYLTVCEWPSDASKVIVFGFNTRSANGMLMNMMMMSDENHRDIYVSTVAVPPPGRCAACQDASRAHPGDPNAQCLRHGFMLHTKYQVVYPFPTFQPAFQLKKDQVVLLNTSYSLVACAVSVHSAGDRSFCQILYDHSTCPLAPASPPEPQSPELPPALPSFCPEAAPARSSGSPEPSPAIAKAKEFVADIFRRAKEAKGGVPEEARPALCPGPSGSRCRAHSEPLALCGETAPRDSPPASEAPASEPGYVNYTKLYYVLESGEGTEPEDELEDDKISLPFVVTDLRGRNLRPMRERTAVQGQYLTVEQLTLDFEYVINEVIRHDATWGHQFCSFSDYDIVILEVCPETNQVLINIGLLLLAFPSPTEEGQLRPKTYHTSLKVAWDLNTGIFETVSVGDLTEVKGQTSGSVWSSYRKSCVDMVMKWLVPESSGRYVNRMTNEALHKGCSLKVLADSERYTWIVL

T1 sequence (Q9UKS7 whole entry): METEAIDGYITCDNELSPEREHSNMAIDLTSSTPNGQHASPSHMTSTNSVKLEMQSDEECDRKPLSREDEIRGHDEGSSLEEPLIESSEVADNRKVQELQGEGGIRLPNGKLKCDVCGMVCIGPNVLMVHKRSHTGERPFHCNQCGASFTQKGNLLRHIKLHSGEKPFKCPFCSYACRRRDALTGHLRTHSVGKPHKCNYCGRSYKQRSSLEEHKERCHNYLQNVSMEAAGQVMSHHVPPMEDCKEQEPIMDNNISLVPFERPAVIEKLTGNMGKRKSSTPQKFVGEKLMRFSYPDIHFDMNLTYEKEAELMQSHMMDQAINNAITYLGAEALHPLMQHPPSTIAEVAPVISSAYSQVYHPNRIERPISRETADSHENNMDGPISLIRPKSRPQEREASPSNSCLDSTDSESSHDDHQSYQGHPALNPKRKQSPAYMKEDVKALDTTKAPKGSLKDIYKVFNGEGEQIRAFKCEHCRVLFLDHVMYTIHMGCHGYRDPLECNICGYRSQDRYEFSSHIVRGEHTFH
T1 sequence (Q96SW2 whole entry): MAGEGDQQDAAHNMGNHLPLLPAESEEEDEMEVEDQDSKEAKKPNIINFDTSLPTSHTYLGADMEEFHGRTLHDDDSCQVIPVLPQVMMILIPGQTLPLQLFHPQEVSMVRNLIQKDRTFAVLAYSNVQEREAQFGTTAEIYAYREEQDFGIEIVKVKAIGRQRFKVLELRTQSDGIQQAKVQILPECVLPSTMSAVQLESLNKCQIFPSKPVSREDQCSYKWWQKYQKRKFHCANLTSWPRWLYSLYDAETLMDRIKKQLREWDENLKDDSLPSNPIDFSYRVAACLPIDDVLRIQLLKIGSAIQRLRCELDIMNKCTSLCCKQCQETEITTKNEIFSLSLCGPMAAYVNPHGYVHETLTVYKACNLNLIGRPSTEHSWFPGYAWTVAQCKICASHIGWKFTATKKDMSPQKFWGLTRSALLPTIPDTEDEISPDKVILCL

| Structure (SMILES) | glue activity for IKZF2-CRBN protein pair (known) (IKZF2-CRBN [1]) | GFP signal over time compared to the DMSO control (IKZF2-CRBN [2]) | glue activity for protein pair RBM39 and DCAF15 (known) (RBM39 and DCAF15) |
| --- | --- | --- | --- |
| Nc1ccc(S(=O)(=O)Nc2cnc3c(Cl)cccc3n2)cc1 | devoid of glue activity | indistinguishable from the DMSO control | known glues |
| NS(=O)(=O)c1ccc(S(=O)(=O)Nc2cccc3c(Cl)c[nH]c23)cc1 [Indisulam] | devoid of glue activity | indistinguishable from the DMSO control | known glues |
